Data taken from PubChem BioAssay AID2060901 (Molecular Pharmacology Branch, DTP, NCI, 2025).
Several values for one entry are separate records, joined by “and”; a condition that tells them apart may be missing. Equal values may be shown once.

Tested on: 422866-222-R5-J1-PDC complex spheroids viability
Assay: Anticancer human tumor 422866-222-R5-J1-PDC patient-derived pancreatic adenocarcinoma cell line growth inhibition [RAS]
Details: for viability, T/C: stronger effect = lower value
Source text: RAS pathway inhibitors in Combinations in Complex Spheroids
A high-throughput screen of multi-cell type tumor spheroids was designed to identify active combinations of RAS pathway inhibitors and targeted small molecules. Complex spheroids include a stromal component modeled by human endothelial cells (HUVEC) and fibroblasts modeled by human mesenchymal stem cells (MSCs). The concentration ranges selected for each drug and investigational agent were based upon clinically achievable concentrations if the clinical Cmax of the agent was known.
Compounds. The drugs and investigational agents: abemaciclib (NSC768073), cobimetinib (NSC768068), divarasib (GDC6063, NSC841802), docetaxel (NSC628503), GDC-1971 (RLY-1971, NSC841576), gemcitabine (NSC613327), inavolisib (NSC800729), ipatasertib (NSC767898), KB-0742 (NSC834161), MRTX-1133 (NSC836407), osimertinib (NSC779217), RMC-4630 (NSC839698), RMC-6236 (NSC851965), RMC-6291 (NSC852671), Ro-3306 (NSC812927), sapanisertib (NSC764658), SN-38 (NSC673596), staurosporine (NSC755774), SY5609 (NSC837396), and tovorafenib (DAY101, NSC766906), were obtained from the National Cancer Institute (NCI) Developmental Therapeutics Program Chemical Repository. The FDA-approved anticancer drug set is available from the NCI Developmental Therapeutics Program. […] The stock solutions were prepared in dimethyl sulfoxide (DMSO, Sigma-Aldrich, St. Louis, MO, cat. D2650) at 800-fold the tested concentration and stored at -70 degrees C prior to their use. All drugs and investigational agents were tested over a range starting from a high concentration at or near the clinical Cmax and decreasing in half-log increments. If the clinical Cmax for an agent had not been determined, the highest concentration tested was 10 microM.
Cell Culture. All cells were maintained in an incubator at 37 degrees C and 5% CO2 with 95% humidity. The PDC lines were cultured according to standard operating procedures established by the NCI PDMR. All PDCs were thawed and cultured in Matrigel-coated flasks prepared with a working solution of 1X Ham's F-12 nutrient mix, without supplementation (Invitrogen, Waltham, MA, cat. 11765054), 100 U/mL penicillin-streptomycin (Invitrogen, cat. 15140122), and 2.5% Matrigel (Corning Inc., Corning, NY, cat. 354248) for the first three passages. The 362531-283-R-J2-PDC and 782815-120-R-J1-PDC lines were cultured in 6C/Colon 1B media, which includes advanced DMEM/F-12 (Thermo Fisher Scientific, cat. 12634028), 10 mM HEPES (Thermo Fisher Scientific, cat. 15630080), 1X GlutaMAX supplement (Thermo Fisher Scientific, cat. 35050061), 0.1 mg/mL primocin (InvivoGen, San Diego, CA, cat. ant-pm-2), 10% defined fetal bovine serum, heat inactivated (HyClone Laboratories Inc., Logan, UT, cat. SH30070.03HI), 50% L-WRN conditioned media (ATCC, cat. CRL-3276), 1.25 mM N-Acetyl-L-cysteine (Sigma-Aldrich, cat. A9165), 10 mM nicotinamide (Sigma-Aldrich, cat. N0636), 1X B-27 supplement (Thermo Fisher Scientific, cat. 17504044), 1X N-2 supplement (Thermo Fisher Scientific, cat. 17502048), 50 ng/mL human EGF (Thermo Fisher Scientific, cat. PHG0311), and 10 microM Y-27632 dihydrochloride (Tocris Bioscience, cat. 1254). The K12877-001-R-J1-PDC line was cultured in 6I media, which includes all 6C/Colon 1B media plus 10 ng/mL human FGF-10 (PeproTech, cat. 100-26), 1 ng/mL human FGF-2 (PeproTech, cat. 100-18B), 1 µM prostaglandin E2 (Tocris Bioscience, cat. 2296), […] hydrocortisone (Sigma-Aldrich, cat. H4001), and […] bovine insulin (Sigma-Aldrich, cat. I6634). The K86415-001-R-J1-PDC line was cultured in 6D media, which includes all 6C/Colon 1B media components minus the L-WRN conditioned media. The 485176-168-R4-J1-PDC was cultured in PANC media, which includes all 6C/Colon 1B media plus 100 ng/mL human FGF-10 (PeproTech, cat. 100-26), 500 nM SB-431542 (Selleckchem, cat. S1067), and 10 nM gastrin (Tocris Bioscience, cat. 3006). […]

[1] = curve of first compound, second compound 0.000949 µM
[2] = curve of first compound, second compound 0.003 µM
[3] = curve of first compound, second compound 0.00949 µM
[4] = curve of first compound, second compound 0.03 µM
[5] = curve of first compound, second compound 0.0949 µM
[6] = curve of first compound, second compound 0.3 µM
[7] = second compound 0.000949 µM, first compound 0.0316 µM
[8] = second compound 0.000949 µM, first compound 0.1 µM
[9] = second compound 0.000949 µM, first compound 0.316 µM
[10] = second compound 0.000949 µM, first compound 1 µM
[11] = second compound 0.003 µM, first compound 0.0316 µM
[12] = second compound 0.003 µM, first compound 0.1 µM
[13] = second compound 0.003 µM, first compound 0.316 µM
[14] = second compound 0.003 µM, first compound 1 µM
[15] = second compound 0.00949 µM, first compound 0.0316 µM
[16] = second compound 0.00949 µM, first compound 0.1 µM
[17] = second compound 0.00949 µM, first compound 0.316 µM
[18] = second compound 0.00949 µM, first compound 1 µM
[19] = second compound 0.03 µM, first compound 0.0316 µM
[20] = second compound 0.03 µM, first compound 0.1 µM
[21] = second compound 0.03 µM, first compound 0.316 µM
[22] = second compound 0.03 µM, first compound 1 µM
[23] = second compound 0.0949 µM, first compound 0.0316 µM
[24] = second compound 0.0949 µM, first compound 0.1 µM
[25] = second compound 0.0949 µM, first compound 0.316 µM
[26] = second compound 0.0949 µM, first compound 1 µM
[27] = second compound 0.3 µM, first compound 0.0316 µM
[28] = second compound 0.3 µM, first compound 0.1 µM
[29] = second compound 0.3 µM, first compound 0.316 µM
[30] = second compound 0.3 µM, first compound 1 µM
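Wherever viability, T/C is given: 100% = DMSO vehicle control viability.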

With `CC(=O)OC12COC1CC(O)C1(C)C(=O)C(O)C3=C(C)C(OC(=O)C(O)C(NC(=O)OC(C)(C)C)c4ccccc4)CC(O)(C(OC(=O)c4ccccc4)C21)C3(C)C` (centres undefined) + CCn1c(-c2cc(N3CCN(C)CC3)cnc2C(C)OC)c2c3cc(ccc31)-c1csc(n1)CC(NC(=O)C1CC1C)C(=O)N1CCCC(N1)C(=O)OCC(C)(C)C2 the IC50 [1] was < 31.6 nM, the IC50 [2] was < 31.6 nM and the IC50 [3] was < 31.6 nM. For the same molecule, the IC50 [4] was < 31.6 nM, the IC50 [5] was < 31.6 nM and the IC50 [6] was < 31.6 nM. For the same molecule, the viability, T/C [7] was 23.3%, the viability, T/C [8] was 25.6% and the viability, T/C [9] was 26.9%. For the same molecule, the viability, T/C [10] was 31.8%, the viability, T/C (second compound 0.000949 µM, first compound 3.16 µM) was 29.4% and the viability, T/C (second compound 0.000949 µM, first compound 10 µM) was 23.2%. It also gave a viability, T/C [11] of 18.8%, a viability, T/C [12] of 19.6% and a viability, T/C [13] of 18.6%. For the same molecule, the viability, T/C [14] was 20.6%, the viability, T/C (second compound 0.003 µM, first compound 3.16 µM) was 21.5% and the viability, T/C (second compound 0.003 µM, first compound 10 µM) was 20.5%. It also gave a viability, T/C [15] of 14.5%, a viability, T/C [16] of 15.8% and a viability, T/C [17] of 16.4%. The viability, T/C [18] was 17.7%, the viability, T/C (second compound 0.00949 µM, first compound 3.16 µM) was 17.3% and the viability, T/C (second compound 0.00949 µM, first compound 10 µM) was 18.3%. It also gave a viability, T/C [19] of 16.3%, a viability, T/C [20] of 18.6% and a viability, T/C [21] of 16.1%. It also gave a viability, T/C [22] of 17%, a viability, T/C (second compound 0.03 µM, first compound 3.16 µM) of 16.9% and a viability, T/C (second compound 0.03 µM, first compound 10 µM) of 19.4%. For the same molecule, the viability, T/C [23] was 17.9%, the viability, T/C [24] was 16.5% and the viability, T/C [25] was 18.7%. The viability, T/C [26] was 17.8%, the viability, T/C (second compound 0.0949 µM, first compound 3.16 µM) was 17% and the viability, T/C (second compound 0.0949 µM, first compound 10 µM) was 22.1%. The viability, T/C [27] was 16.7%, the viability, T/C [28] was 17.1% and the viability, T/C [29] was 18.4%. The viability, T/C [30] was 17.8%, the viability, T/C (second compound 0.3 µM, first compound 3.16 µM) was 19.9% and the viability, T/C (second compound 0.3 µM, first compound 10 µM) was 21.5%.
`CC1(O)CCCC1n1c(=O)c(C(F)F)cc2cnc(NC3CCN(S(C)(=O)=O)CC3)nc21` (centres undefined) was tested, and the viability, T/C (compound 0.0316 µM) was 82.7% [middle of 4 runs], the viability, T/C (compound 0.316 µM) was 85.5% [middle of 4 runs] and the viability, T/C (compound 1 µM) was 91.1% [middle of 4 runs]. For the same molecule, the viability, T/C (compound 10 µM) was 58.4% [middle of 4 runs] and the IC50 (curve of compound) was 8910 nM and > 10000 nM and 9300 nM.
For `C=CC(=O)N1CCN(c2nc(OCC3CCCN3C)nc3c(F)c(-c4nc(N)cc(C)c4C(F)(F)F)c(Cl)cc23)C(C)C1` (centres undefined) + CCn1c(-c2cccnc2C(C)OC)c2c3cc(ccc31)N1CCOC(CC(NC(=O)C(C(C)C)N(C)C(=O)C3(F)CCN(C(=O)C#CC(C)(C)N(C)C)CC3)C(=O)N3CCCC(N3)C(=O)OCC(C)(C)C2)C1, the IC50 [1] was < 3.16 nM, the IC50 [2] was < 3.16 nM and the IC50 [3] was < 3.16 nM. For the same molecule, the IC50 [4] was < 3.16 nM, the IC50 [5] was < 3.16 nM and the IC50 [6] was < 3.16 nM. The viability, T/C (second compound 0.000949 µM, first compound 0.00316 µM) was 24.9%, the viability, T/C (second compound 0.000949 µM, first compound 0.01 µM) was 25.5% and the viability, T/C [7] was 23.4%. For the same molecule, the viability, T/C [8] was 23.8%, the viability, T/C [9] was 21.1% and the viability, T/C [10] was 22.7%. For the same molecule, the viability, T/C (second compound 0.003 µM, first compound 0.00316 µM) was 24.1%, the viability, T/C (second compound 0.003 µM, first compound 0.01 µM) was 25.6% and the viability, T/C [11] was 21.5%. For the same molecule, the viability, T/C [12] was 22.8%, the viability, T/C [13] was 21.1% and the viability, T/C [14] was 24%. For the same molecule, the viability, T/C (second compound 0.00949 µM, first compound 0.00316 µM) was 22.8%, the viability, T/C (second compound 0.00949 µM, first compound 0.01 µM) was 24.2% and the viability, T/C [15] was 23.3%. For the same molecule, the viability, T/C [16] was 20.6%, the viability, T/C [17] was 21.6% and the viability, T/C [18] was 22.1%. For the same molecule, the viability, T/C (second compound 0.03 µM, first compound 0.00316 µM) was 21.2%, the viability, T/C (second compound 0.03 µM, first compound 0.01 µM) was 23.9% and the viability, T/C [19] was 17.8%. The viability, T/C [20] was 18.9%, the viability, T/C [21] was 21.1% and the viability, T/C [22] was 22.4%. It also gave a viability, T/C (second compound 0.0949 µM, first compound 0.00316 µM) of 21.4%, a viability, T/C (second compound 0.0949 µM, first compound 0.01 µM) of 19.8% and a viability, T/C [23] of 20.1%. For the same molecule, the viability, T/C [24] was 20.2%, the viability, T/C [25] was 19.7% and the viability, T/C [26] was 21.3%. For the same molecule, the viability, T/C (second compound 0.3 µM, first compound 0.00316 µM) was 18%, the viability, T/C (second compound 0.3 µM, first compound 0.01 µM) was 18% and the viability, T/C [27] was 20.5%. It also gave a viability, T/C [28] of 19.6%, a viability, T/C [29] of 16.5% and a viability, T/C [30] of 20%.
